From patent US20240165243A1, “EGFR DEGRADERS AND METHODS OF USE” (BeiGene Switzerland GmbH, priority 2021, published 2024)

Assays:
Type in all cases: cell-based
EGFR (Del19/T790M/C797S) [1] = experiment: Cell degradation HTRF assay, BaF3-DTC cells; details: 16 h treatment; for DC50: HTRF; for DTC Dmax (%): maximum percentage of degradation
Experimental: (§1) Cell Degradation of Example 1-28
(§2) BaF3-LTC (L858R/T790M/C797S) and BaF3-DTC (Del19/T790M/C797S) cells are treated with compounds diluted in 0.2% DMSO cell culture medium and incubate for 16 h, 37° C., 5% CO2. The final concentration of compounds in all assay is start with 10 uM, 4-fold dilution, total 8 doses were included.
(§3) After 16 h treatment, add HTRF lysis buffer to each well; seal the plate and incubate 1 hour at room temperature on a plate shaker; Once the cells are lysed, 16 μL of cell lysate are transferred to a PE 384-well HTRF detection plate; 4 μL of pre-mixed HTRF antibodies are added to each well; Cover the plate with a plate sealer, spin 1000 rpm for 1 min, Incubate overnight at room temperature; Read on BMG PheraStar with HTRF protocol (337 nm-665 nm-620 nm). The inhibition (degradation) percentage of the compound was calculated by the following equation:
(§4) Inhibition percentage of Compound=100−100×(Signal−low control)/(High control−low control), wherein signal=each test compound group.
(§5) High control=Cell group with added DMSO and without compound, indicating microplate readings without EGFR degradation;
(§6) Dmax is the maximum percentage of inhibition (degradation).
(§7) The IC50 (DC50) value of a compound can be obtained by fitting the following equation
(§8) Y=Bottom+(TOP−Bottom)/(1+((C50/X)^hillslope))
(§9) Wherein, X and Y are known values, and IC50, Hillslope, Top and Bottom are the parameters obtained by fitting with software. Y is the inhibition percentage (calculated from the equation), X is the concentration of the compound; IC50 is the concentration of the compound when the 50% inhibition is reached. The smaller the IC50 value is, the stronger the inhibitory ability of the compound is. Vice versa, the higher the IC50 value is, the weaker the ability the inhibitory ability of the compound is; Hillslope represents the slope of the fitted curve, generally around 1*; Bottom represents the minimum value of the curve obtained by data fitting, which is generally 000±20%; Top represents the maximum value of the curve obtained by data fitting, which is generally 100%±20%. The experimental data were fitted by calculating and analyzing with Dotmatics data analysis software. When Dmax<50%, DC50 will be automatically assigned as larger than […].

EGFR (L858R/T790M/C797S) [2] = target: T1, EGFR (L858R/T790M/C797S) (Homo sapiens, UniProt P00533, C797S/L858R/T790M); experiment: Cell degradation HTRF assay, BaF3-LTC cells; design: expressed in transfected cells; host or cells: BaF3-LTC; details: 16 h treatment; for DC50: HTRF; for Dmax: maximum percentage of degradation
T1 sequence (P00533 25-1210 T790M/C797S/L858R): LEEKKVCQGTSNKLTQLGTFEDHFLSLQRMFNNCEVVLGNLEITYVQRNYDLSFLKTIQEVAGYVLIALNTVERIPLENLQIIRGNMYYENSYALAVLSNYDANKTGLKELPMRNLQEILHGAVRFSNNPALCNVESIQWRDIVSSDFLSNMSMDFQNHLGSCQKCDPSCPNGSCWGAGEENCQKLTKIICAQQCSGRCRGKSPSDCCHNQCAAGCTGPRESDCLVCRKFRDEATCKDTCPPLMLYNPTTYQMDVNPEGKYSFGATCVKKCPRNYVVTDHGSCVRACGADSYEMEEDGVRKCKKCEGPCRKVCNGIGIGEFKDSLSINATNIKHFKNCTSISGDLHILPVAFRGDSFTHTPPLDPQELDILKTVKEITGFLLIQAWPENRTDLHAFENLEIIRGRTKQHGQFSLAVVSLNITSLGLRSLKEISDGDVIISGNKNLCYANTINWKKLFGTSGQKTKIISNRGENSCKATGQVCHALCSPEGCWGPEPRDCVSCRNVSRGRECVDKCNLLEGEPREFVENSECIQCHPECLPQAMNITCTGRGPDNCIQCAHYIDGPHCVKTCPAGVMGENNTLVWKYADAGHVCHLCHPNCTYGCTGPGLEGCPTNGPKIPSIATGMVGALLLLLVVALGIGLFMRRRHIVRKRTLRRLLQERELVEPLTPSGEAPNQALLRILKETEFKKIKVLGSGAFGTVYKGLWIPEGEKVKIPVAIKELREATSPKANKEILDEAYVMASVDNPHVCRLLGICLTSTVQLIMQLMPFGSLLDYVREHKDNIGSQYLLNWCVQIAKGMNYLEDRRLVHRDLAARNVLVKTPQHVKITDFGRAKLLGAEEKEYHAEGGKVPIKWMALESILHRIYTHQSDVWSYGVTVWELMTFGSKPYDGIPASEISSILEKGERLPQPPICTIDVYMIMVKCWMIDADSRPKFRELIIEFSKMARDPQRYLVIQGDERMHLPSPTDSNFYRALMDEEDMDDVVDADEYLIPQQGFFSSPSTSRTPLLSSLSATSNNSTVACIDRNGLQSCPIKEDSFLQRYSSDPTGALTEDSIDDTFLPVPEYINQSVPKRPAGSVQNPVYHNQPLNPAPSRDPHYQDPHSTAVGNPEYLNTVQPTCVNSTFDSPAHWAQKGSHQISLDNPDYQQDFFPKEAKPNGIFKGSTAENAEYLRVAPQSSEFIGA
Experimental: as §1, §2, §3, §4, §5, §6, §7, §8, §9

EGFR (Del19/T790M/C797S) [3] = experiment: Cell degradation HTRF assay, H1975-clone #28 cells; details: H1975-clone #28 (Del19/T790M/C797S) cells, 16 h treatment; for DC50: HTRF, read-out: H1975-clone#28 DTC DC50; for H1975-clone#28 DTC Dmax (%): maximum percentage of degradation
How it was run: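 H1975 clones #25 and #28 were treated 16 h at 37° C, 5% CO2 with 8 doses (top 10 uM, 5-fold dilution) in 0.2% DMSO medium. EGFR in lysates read by HTRF (665/620 nm); degradation % relative to DMSO high control; DC50 from 4-parameter fit, Dmax = maximal degradation.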

EGFR (L858R/T790M/C797S) [4] = target: T1, EGFR (L858R/T790M/C797S); experiment: Cell degradation HTRF assay, H1975-clone #25 cells; details: H1975-clone #25 (L858R/T790M/C797S) cells, 16 h treatment; for DC50: HTRF, read-out: H1975-clone#25 LTC DC50; for Dmax: maximum percentage of degradation, read-out: H1975-clone#25 LTC Dmax (%)
Experimental: Cell Degradation of Example 124-189
H1975-#28 and H1975-#25 cells are treated with compounds diluted in 0.2% DMSO cell culture medium on day 2, incubate for 16 h, 37° C., 5% CO2. the final concentration of compounds in all assay is start with 10 uM, 5-fold dilution, total 8 doses were included.
as §3, with “nm).” for “nm). The inhibition (degradation) percentage of the compound was calculated by the following equation:”
The inhibition (degradation) percentage of the compound was calculated by the following equation:
as §4, §5, §6, §7
Y=Bottom+(TOP−Bottom)/(1+((IC50/X)^hillslope))
as §9, with “0%±20%;” for “000±20%;”

Row | Compound | DC50 (EGFR (Del19/T790M/C797S) [1]) | DC50 (EGFR (L858R/T790M/C797S) [2]) | Dmax (EGFR (L858R/T790M/C797S) [2]) | DC50 (EGFR (Del19/T790M/C797S) [3]) | DC50 (EGFR (L858R/T790M/C797S) [4]) | Dmax (EGFR (L858R/T790M/C797S) [4]) | DTC Dmax (%) (EGFR (Del19/T790M/C797S) [1]) | H1975-clone#28 DTC Dmax (%) (EGFR (Del19/T790M/C797S) [3])
1 | CCc1cc(Nc2ncc(Br)c(Nc3cnc4ccccc4c3P(C)(C)=O)n2)c(OC)cc1N1CCC(N2CCN(CC3CN(c4cc(F)c(C5CCC(=O)NC5=O)c(F)c4)C3)CC2)CC1 (stereo not shown) [Example 19, 3-(4-(3-((4-(1-(4-((5-bromo-4-((4-(dimethylphosphoryl)quinolin-3-yl)amino)pyrimidin-2-yl)amino)-2-ethyl-5-methoxyphenyl)piperidin-4-yl)piperazin-1-yl)methyl)azetidin-1-yl)-2,6-difluorophenyl)piperidine-2,6-dione] | 4.24 nM | 8.02 nM | 89.4% | – | – | – | 97.44% | –
2 | CCc1cc(Nc2ncc(Br)c(Nc3cnc4ccccc4c3P(C)(C)=O)n2)c(OC)cc1N1CCC(N2CCN(C(=O)C3CN(c4cc(F)c(C5CCC(=O)NC5=O)c(F)c4)C3)CC2)CC1 (stereo not shown) [Example 20, 3-(4-(3-(4-(1-(4-((5-bromo-4-((4-(dimethylphosphoryl)quinolin-3-yl)amino)pyrimidin-2-yl)amino)-2-ethyl-5-methoxyphenyl)piperidin-4-yl)piperazine-1-carbonyl)azetidin-1-yl)-2,6-difluorophenyl)piperidine-2,6-dione] | 4.65 nM | 19.5 nM | 89.5% | – | – | – | 96.7% | –
3 | CCc1cc(Nc2ncc(Br)c(Nc3cnc4ccccc4c3P(C)(C)=O)n2)c(OC)cc1N1CCC(N2CCN(CCc3ccc4c(c3)C3(CC3)C(=O)N4C3CCC(=O)NC3=O)CC2)CC1 (stereo not shown) [Example 24, 3-(5′-(2-(4-(1-(4-((5-bromo-4-((4-(dimethylphosphoryl)quinolin-3-yl)amino)pyrimidin-2-yl)amino)-2-ethyl-5-methoxyphenyl)piperidin-4-yl)piperazin-1-yl)ethyl)-2′-oxospiro[cyclopropane-1,3′-indolin]-1′-yl)piperidine-2,6-dione] | 2.88 nM | 27.5 nM | 89.6% | – | – | – | 84.3% | –
4 | CCc1cc(Nc2ncc(Br)c(Nc3cnc4cnccc4c3P(C)(C)=O)n2)c(OC)cc1N1CCC(N2CCN(CCc3cc(F)c(C4CCC(=O)NC4=O)c(F)c3)CC2)CC1 (stereo not shown) [Example 28, 3-(4-(2-(4-(1-(4-((5-bromo-4-((4-(dimethylphosphoryl)-1,7-naphthyridin-3-yl)amino)pyrimidin-2-yl)amino)-2-ethyl-5-methoxyphenyl)piperidin-4-yl)piperazin-1-yl)ethyl)-2,6-difluorophenyl)piperidine-2,6-dione] | 5.4 nM | 8.95 nM | 81.9% | – | – | – | 90.9% | –
5 | CCOc1cc(N2CCC(N3CCN(CCc4cccc5c4n(C)c(=O)n5C4CCC(=O)NC4=O)CC3)CC2)c(CC)cc1Nc1ncc(Br)c(Nc2cnc3ccc(F)cc3c2P(C)(C)=O)n1 (stereo not shown) [Example 124, 3-(4-(2-(4-(1-(4-((5-bromo-4-((4-(dimethylphosphoryl)-6-fluoroquinolin-3-yl)amino)pyrimidin-2-yl)amino)-5-ethoxy-2-ethylphenyl)piperidin-4-yl)piperazin-1-yl)ethyl)-3-methyl-2-oxo-2,3-dihydro-1H-benzol[d]imidazol-1-yl) piperidine-2,6-dione] | – | – | – | 1.4 nM | 3.4 nM | 77% | – | 73%
6 | CCOc1cc(N2CCC(N3CCN(CCc4cccc5c4n(C)c(=O)n5C4CCC(=O)NC4=O)CC3)CC2)c(CC)cc1Nc1ncc(Br)c(Nc2cnc3cc(F)ccc3c2P(C)(C)=O)n1 (stereo not shown) [Example 147, 3-(4-(2-(4-(1-(4-((5-bromo-4-((4-(dimethylphosphoryl)-7-fluoroquinolin-3-yl)amino)pyrimidin-2-yl)amino)-5-ethoxy-2-ethylphenyl)piperidin-4-yl)piperazin-1-yl)ethyl)-3-methyl-2-oxo-2,3-dihydro-1H-benzol[d]imidazol-1-yl) piperidine-2,6-dione] | – | – | – | 0.4 nM | 15.3 nM | 77% | – | 84%
7 | CCc1cc(Nc2ncc(Br)c(Nc3cnc4ccc(C(F)(F)F)cc4c3P(C)(C)=O)n2)c(OC)cc1N1CCC(N2CCN(CCc3cccc4c3n(C)c(=O)n4C3CCC(=O)NC3=O)CC2)CC1 (stereo not shown) [Example 166, 3-(4-(2-(4-(1-(4-((5-bromo-4-((4-(dimethylphosphoryl)-6-(trifluoromethyl)quinolin-3-yl)amino)pyrimidin-2-yl)amino)-2-ethyl-5-methoxyphenyl)piperidin-4-yl)piperazin-1-yl)ethyl)-3-methyl-2-oxo-2,3-dihydro-1H-benzo[d]imidazol-1-yl)piperidine-2,6-dione] | – | – | – | 2.8 nM | 4.2 nM | 81% | – | 80%

The remaining compounds from weak to strong by DC50 (EGFR (Del19/T790M/C797S) [1]), led by results:

Row | DC50 (EGFR (Del19/T790M/C797S) [1]) | DC50 (EGFR (L858R/T790M/C797S) [2]) | Dmax (EGFR (L858R/T790M/C797S) [2]) | DC50 (EGFR (Del19/T790M/C797S) [3]) | DC50 (EGFR (L858R/T790M/C797S) [4]) | Dmax (EGFR (L858R/T790M/C797S) [4]) | Compound | DTC Dmax (%) (EGFR (Del19/T790M/C797S) [1]) | H1975-clone#28 DTC Dmax (%) (EGFR (Del19/T790M/C797S) [3])
8 | 2.22 nM | 11.1 nM | 88.6% | – | – | – | CCc1cc(Nc2ncc(Br)c(Nc3cnc4ccccc4c3P(C)(C)=O)n2)c(OC)cc1N1CCC(N2CCN(C(=O)C3CC4(CC(Nc5cc(F)c(C6CCC(=O)NC6=O)c(F)c5)C4)C3)CC2)CC1 (stereo not shown) [Example 23, 3-(4-((6-(4-(1-(4-((5-bromo-4-((4-(dimethylphosphoryl)quinolin-3-yl)amino)pyrimidin-2-yl)amino)-2-ethyl-5-methoxyphenyl)piperidin-4-yl)piperazine-1-carbonyl)spiro[3.3]heptan-2-yl)amino)-2,6-difluorophenyl)piperidine-2,6-dione] | 94.5% | –
9 | 1.8 nM | 6.77 nM | 85% | – | – | – | CCc1cc(Nc2ncc(Br)c(Nc3cnc4ccccc4c3P(C)(C)=O)n2)c(OC)cc1N1CCC(N2CCN(C(=O)C3CN(c4ccc5c(cnn5C5CCC(=O)NC5=O)c4)C3)CC2)CC1 (stereo not shown) [Example 25, 3-(5-(3-(4-(1-(4-((5-bromo-4-((4-(dimethylphosphoryl)quinolin-3-yl)amino)pyrimidin-2-yl)amino)-2-ethyl-5-methoxyphenyl)piperidin-4-yl)piperazine-1-carbonyl)azetidin-1-yl)-1H-indazol-1-yl)piperidine-2,6-dione] | 88.68% | –
10 | 1.11 nM | 5.02 nM | 93.3% | – | – | – | CCc1cc(Nc2ncc(Br)c(Nc3cnc4ccccc4c3P(C)(C)=O)n2)c(OC)cc1N1CCC(N2CCN(CCc3cccc4c3n(C)c(=O)n4C3CCC(=O)NC3=O)CC2)CC1 (stereo not shown) [Example 21, 3-(4-(2-(4-(1-(4-((5-bromo-4-((4-(dimethylphosphoryl)quinolin-3-yl)amino)pyrimidin-2-yl)amino)-2-ethyl-5-methoxyphenyl)piperidin-4-yl)piperazin-1-yl)ethyl)-3-methyl-2-oxo-2,3-dihydro-1H-benzo[d]imidazol-1-yl)piperidine-2,6-dione] | 94.17% | –
